ChEMBL document CHEMBL2203125, “A Potent and Selective Quinoxalinone-Based STK33 Inhibitor Does Not Show Synthetic Lethality in KRAS-Dependent Cells” (ACS Med Chem Lett, 2012)
≈ marks a conversion by molar mass, not a printed value. Calls of active or inactive are those of the source. The calls are words filed in the database; no cut-off is given here.

Legend:
[1] = biological target: T1, Serine/threonine-protein kinase 33 (Homo sapiens, UniProt Q9BYT3); experiment: Inhibition of N-terminal 6His-tagged full length human recombinant STK33 using myelin basic protein as substrate incubated for 15 mins before initiation of kinase reaction measured after 1 hr by ADP-glo assay
Target sequence in this assay (Q9BYT3 whole entry, the tested form may be a part): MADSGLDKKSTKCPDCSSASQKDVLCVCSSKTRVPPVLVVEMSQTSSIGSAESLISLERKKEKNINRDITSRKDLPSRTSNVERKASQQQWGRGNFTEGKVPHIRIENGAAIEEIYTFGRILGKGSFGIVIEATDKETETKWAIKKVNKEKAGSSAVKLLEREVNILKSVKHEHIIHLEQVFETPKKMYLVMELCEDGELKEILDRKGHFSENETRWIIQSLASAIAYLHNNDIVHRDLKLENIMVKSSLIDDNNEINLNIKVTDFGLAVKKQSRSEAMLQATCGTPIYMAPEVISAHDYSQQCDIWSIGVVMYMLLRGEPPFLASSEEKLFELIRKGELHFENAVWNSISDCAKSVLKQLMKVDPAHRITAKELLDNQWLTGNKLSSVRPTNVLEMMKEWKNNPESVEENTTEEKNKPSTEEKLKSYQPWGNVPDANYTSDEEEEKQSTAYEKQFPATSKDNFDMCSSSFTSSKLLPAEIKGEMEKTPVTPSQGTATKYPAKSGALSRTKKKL

[2] = Inhibition of His-tagged recombinant catalytic fragment of PKA assessed as phosphorylation of fluorescent-labeled peptide 21substrate by caliper capillary electrophoresis
[3] = Chemical stability of the compound in DMSO solution by LC-MS analysis; format: physicochemical
[4] = species on record: Homo sapiens; experiment: Selectivity ratio of IC50 for His-tagged recombinant catalytic fragment of PKA to IC50 for N-terminal 6His-tagged full length human recombinant STK33
[5] = species on record: Homo sapiens; experiment: Selectivity ratio of IC50 for human Aurora-B to IC50 for N-terminal 6His-tagged full length human recombinant STK33
[6] = species on record: Homo sapiens; experiment: Selectivity ratio of IC50 for N-terminal 6His-tagged full length human recombinant STK33 to IC50 for human Aurora-B
[7] = test system: MDA-MB-231; experiment: Cytotoxicity against human MDA-MB-231 cells expressing KRAS mutant gene assessed as effect on cell viability up to 10 uM after 72 hrs by CellTiter-Glo luminescent assay; format: functional, cell-based
[8] = species on record: Homo sapiens; experiment: Cytotoxicity against human KARPAS620 cells expressing KRAS mutant gene assessed as effect on cell viability up to 10 uM after 72 hrs by CellTiter-Glo luminescent assay; format: functional, cell-based
[9] = test system: THP-1; experiment: Cytotoxicity against human THP1 cells expressing wild type KRAS assessed as effect on cell viability up to 10 uM after 72 hrs by CellTiter-Glo luminescent assay; format: functional, cell-based
[10] = test system: Jurkat; experiment: Cytotoxicity against human Jurkat cells expressing wild type KRAS assessed as effect on cell viability up to 10 uM after 72 hrs by CellTiter-Glo luminescent assay; format: functional, cell-based
[11] = test system: U-937; experiment: Cytotoxicity against human U937 cells expressing wild type KRAS assessed as effect on cell viability up to 10 uM after 72 hrs by CellTiter-Glo luminescent assay; format: functional, cell-based
[12] = biological target: Vascular endothelial growth factor receptor 2 (Homo sapiens) (UniProt P35968); details: 1 uM
Description: Inhibition of human KDR at 1 uM

[13] = biological target: Receptor-type tyrosine-protein kinase FLT3 (Homo sapiens) (UniProt P36888); details: 1 uM
Description: Inhibition of human FLT3 at 1 uM

[14] = test system: GDM-1; experiment: Cytotoxicity against human GDM-1 cells expressing wild type KRAS assessed as effect on cell viability up to 10 uM after 72 hrs by CellTiter-Glo luminescent assay; format: functional, cell-based
[15] = test system: Plasma; experiment: Plasma protein binding in mouse at 5 uM after 5 hrs by equilibrium dialysis method; format: ADME, cell-free
[16] = test system: EOL1; experiment: Cytotoxicity against human EOL-1 cells expressing wild type KRAS assessed as effect on cell viability up to 10 uM after 72 hrs by CellTiter-Glo luminescent assay; format: functional, cell-based
[17] = test system: MM1.S; experiment: Cytotoxicity against human MM1S cells expressing wild type KRAS assessed as effect on cell viability up to 10 uM after 72 hrs by CellTiter-Glo luminescent assay; format: functional, cell-based
[18] = test system: NOMO-1; experiment: Cytotoxicity against human NOMO1 cells expressing KRAS mutant gene assessed as effect on cell viability up to 10 uM after 72 hrs by CellTiter-Glo luminescent assay; format: functional, cell-based
[19] = test system: NB-4; experiment: Cytotoxicity against human NB4 cells expressing KRAS mutant gene assessed as effect on cell viability up to 10 uM after 72 hrs by CellTiter-Glo luminescent assay; format: functional, cell-based
[20] = test system: MOLM16; experiment: Cytotoxicity against human MOLM16 cells expressing wild type KRAS assessed as effect on cell viability up to 10 uM after 72 hrs by CellTiter-Glo luminescent assay; format: functional, cell-based
[21] = test system: RPMI-8226; experiment: Cytotoxicity against human RPMI8226 cells expressing KRAS mutant gene assessed as effect on cell viability up to 10 uM after 72 hrs by CellTiter-Glo luminescent assay; format: functional, cell-based
[22] = Solubility of the compound in PBS at pH 7.4; format: physicochemical; details: buffer
[23] = Metabolic stability in mouse plasma at 5 uM after 5 hrs by UPLC-MS analysis; format: ADME, cell-free; details: read-out: Stability
[24] = test system: SKM-1; experiment: Cytotoxicity against human SKM1 cells expressing KRAS mutant gene assessed as effect on cell viability up to 10 uM after 72 hrs by CellTiter-Glo luminescent assay; format: functional, cell-based
[25] = Metabolic stability in human plasma at 5 uM after 5 hrs by UPLC-MS analysis; format: ADME, cell-free; details: read-out: Stability
[26] = test system: KOPN-8; experiment: Cytotoxicity against human KOPN8 cells expressing KRAS mutant gene assessed as effect on cell viability up to 10 uM after 72 hrs by CellTiter-Glo luminescent assay; format: functional, cell-based
[27] = test system: EJM; experiment: Cytotoxicity against human EJM cells expressing wild type KRAS assessed as effect on cell viability up to 10 uM after 72 hrs by CellTiter-Glo luminescent assay; format: functional, cell-based
[28] = biological target: T1, Serine/threonine-protein kinase 33; details: 1 uM
Target sequence in this assay (Q9BYT3 whole entry, looked up, the tested form may be a part): as the sequence (Q9BYT3 whole entry, the tested form may be a part) above
Description: Inhibition of N-terminal 6His-tagged full length human recombinant STK33 using myelin basic protein as substrate at 1 uM incubated for 15 mins before initiation of kinase reaction measured after 1 hr by ADP-glo assay

[29] = test system: Plasma; experiment: Plasma protein binding in human at 5 uM after 5 hrs by equilibrium dialysis method; format: ADME, cell-free
[30] = test system: PL21; experiment: Cytotoxicity against human PL21 cells expressing wild type KRAS assessed as effect on cell viability up to 10 uM after 72 hrs by CellTiter-Glo luminescent assay; format: functional, cell-based
[31] = test system: OCI-AML-3; experiment: Cytotoxicity against human OCI-AML3 cells expressing wild type KRAS assessed as effect on cell viability up to 10 uM after 72 hrs by CellTiter-Glo luminescent assay; format: functional, cell-based

Sequence of Receptor-type tyrosine-protein kinase FLT3 (Homo sapiens) (P36888 whole entry): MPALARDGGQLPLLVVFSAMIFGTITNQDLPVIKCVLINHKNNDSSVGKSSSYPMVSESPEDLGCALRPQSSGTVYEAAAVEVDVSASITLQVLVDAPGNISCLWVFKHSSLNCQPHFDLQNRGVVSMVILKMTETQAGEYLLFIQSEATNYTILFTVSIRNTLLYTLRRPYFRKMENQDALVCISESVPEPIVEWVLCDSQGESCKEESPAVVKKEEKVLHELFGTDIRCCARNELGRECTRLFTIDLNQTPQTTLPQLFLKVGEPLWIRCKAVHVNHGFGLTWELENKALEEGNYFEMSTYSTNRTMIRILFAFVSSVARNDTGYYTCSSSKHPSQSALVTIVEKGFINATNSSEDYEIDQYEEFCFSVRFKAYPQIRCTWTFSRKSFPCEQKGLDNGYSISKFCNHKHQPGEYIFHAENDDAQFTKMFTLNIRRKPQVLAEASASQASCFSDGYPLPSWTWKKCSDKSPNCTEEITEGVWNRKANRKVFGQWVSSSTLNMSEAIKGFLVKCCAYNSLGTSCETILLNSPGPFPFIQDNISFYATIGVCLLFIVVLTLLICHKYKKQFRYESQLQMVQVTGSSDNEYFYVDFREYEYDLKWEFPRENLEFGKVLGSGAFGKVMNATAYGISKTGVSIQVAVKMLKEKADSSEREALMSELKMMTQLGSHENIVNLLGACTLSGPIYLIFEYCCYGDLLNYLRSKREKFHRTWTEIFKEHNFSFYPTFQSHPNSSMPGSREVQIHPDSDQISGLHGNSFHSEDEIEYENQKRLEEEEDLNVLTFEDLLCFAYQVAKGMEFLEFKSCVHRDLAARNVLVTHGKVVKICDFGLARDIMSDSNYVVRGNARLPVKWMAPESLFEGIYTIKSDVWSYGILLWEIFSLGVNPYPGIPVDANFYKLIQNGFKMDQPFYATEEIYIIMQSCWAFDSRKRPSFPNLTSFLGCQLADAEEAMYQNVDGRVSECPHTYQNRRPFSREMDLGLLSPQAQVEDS
Sequence of Vascular endothelial growth factor receptor 2 (Homo sapiens) (P35968 whole entry): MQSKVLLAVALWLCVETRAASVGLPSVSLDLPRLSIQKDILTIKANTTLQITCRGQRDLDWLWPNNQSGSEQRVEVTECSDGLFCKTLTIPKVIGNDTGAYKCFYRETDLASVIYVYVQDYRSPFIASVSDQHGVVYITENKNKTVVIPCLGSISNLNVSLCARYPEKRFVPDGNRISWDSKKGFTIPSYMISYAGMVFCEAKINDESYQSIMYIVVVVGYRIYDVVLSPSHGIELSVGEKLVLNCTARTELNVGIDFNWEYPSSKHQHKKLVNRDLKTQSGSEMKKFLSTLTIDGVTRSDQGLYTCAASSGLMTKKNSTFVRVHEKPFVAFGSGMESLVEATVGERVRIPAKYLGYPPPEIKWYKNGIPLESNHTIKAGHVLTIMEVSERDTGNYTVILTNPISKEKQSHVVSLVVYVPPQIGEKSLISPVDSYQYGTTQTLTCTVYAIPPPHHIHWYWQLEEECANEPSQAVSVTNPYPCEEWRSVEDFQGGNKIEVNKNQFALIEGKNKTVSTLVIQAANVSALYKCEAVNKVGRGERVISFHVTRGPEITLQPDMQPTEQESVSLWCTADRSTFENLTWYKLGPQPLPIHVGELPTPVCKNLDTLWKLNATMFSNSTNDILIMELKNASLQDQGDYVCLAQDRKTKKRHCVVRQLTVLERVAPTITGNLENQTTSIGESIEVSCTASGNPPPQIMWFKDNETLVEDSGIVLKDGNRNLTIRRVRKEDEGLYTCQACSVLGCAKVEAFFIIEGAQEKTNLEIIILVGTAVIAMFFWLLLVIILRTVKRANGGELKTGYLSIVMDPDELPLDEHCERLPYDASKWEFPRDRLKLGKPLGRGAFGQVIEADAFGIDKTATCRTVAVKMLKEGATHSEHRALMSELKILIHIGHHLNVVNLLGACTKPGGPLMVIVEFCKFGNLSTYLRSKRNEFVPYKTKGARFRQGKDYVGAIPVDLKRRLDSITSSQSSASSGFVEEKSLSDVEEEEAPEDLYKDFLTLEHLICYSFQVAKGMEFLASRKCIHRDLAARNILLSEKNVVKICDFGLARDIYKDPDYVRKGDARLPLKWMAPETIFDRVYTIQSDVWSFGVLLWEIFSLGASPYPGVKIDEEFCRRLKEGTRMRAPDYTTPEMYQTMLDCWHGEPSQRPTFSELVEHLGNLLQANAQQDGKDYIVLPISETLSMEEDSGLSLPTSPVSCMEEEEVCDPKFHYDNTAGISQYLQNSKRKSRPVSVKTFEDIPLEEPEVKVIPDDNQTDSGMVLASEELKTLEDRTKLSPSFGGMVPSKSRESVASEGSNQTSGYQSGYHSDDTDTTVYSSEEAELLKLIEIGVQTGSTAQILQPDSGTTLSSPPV

O=C(Nc1ccccc1-c1nc2ccccc2[nH]c1=O)c1nccs1
IC50 [1]: 530 nM

O=c1[nH]c2ccccc2nc1-c1ccccc1NCC1CC1
IC50 [1]: > 10000 nM

O=c1[nH]c2ccccc2nc1-c1ccccc1NCc1cccs1
IC50 [2]: > 10000 nM
IC50 [1]: > 10000 nM

O=c1[nH]c2ccccc2nc1-c1ccccc1NCc1ccccc1
IC50 [2]: > 10000 nM
IC50 [1]: > 10000 nM

O=C(Nc1cc(F)ccc1-c1nc2ccccc2[nH]c1=O)c1cccs1
IC50 [2]: > 10000 nM
IC50 [1]: 78 nM

O=C(Nc1ccccc1-c1nc2ccccc2[nH]c1=O)c1cccnc1
IC50 [2]: > 10000 nM
Stability [3]: Stable
IC50 [1]: 580 nM

Cc1cc2nc(-c3ccccc3NC(=O)c3cccs3)c(=O)[nH]c2cc1C
IC50 [2]: > 10000 nM
IC50 [1]: 1600 nM

O=C(Nc1ccccc1-c1nc2ccccc2[nH]c1=O)C1CCCCC1
IC50 [2]: > 10000 nM
IC50 [1]: > 10000 nM

O=c1[nH]c2ccccc2nc1-c1ccccc1NCc1ccc(F)cc1
IC50 [1]: > 10000 nM

O=C(Nc1ccc(F)cc1-c1nc2ccccc2[nH]c1=O)c1cccs1
IC50 [2]: > 10000 nM
IC50 [1]: 410 nM

O=C(Nc1ccccc1-c1nc2ccccc2[nH]c1=O)c1ccc(Cl)s1
IC50 [1]: 380 nM

O=C(Nc1ccccc1-c1nc2ccccc2nc1O)c1cccs1
IC50 [2]: > 10000 nM
IC50 [1]: 280 nM

O=C(Nc1ccc(Cl)cc1-c1nc2ccccc2[nH]c1=O)c1cccs1
IC50 [2]: > 10000 nM
IC50 [1]: 160 nM

COc1ccc(C(=O)Nc2ccccc2-c2nc3ccccc3[nH]c2=O)cc1
IC50 [2]: > 10000 nM
IC50 [1]: 980 nM

CC(=O)NC[C@@H]1C[C@@H](NS(=O)(=O)c2cccc3cncc(C)c23)CN1
Ratio IC50 [4]: 5
Ratio IC50 [5]: 5

O=C(Nc1ccccc1-c1nc2cc(Cl)c(Cl)cc2[nH]c1=O)c1cccs1
Ratio IC50 [4]: 1.1
IC50 [2]: 4800 nM
IC50 [1]: 4000 nM

O=c1[nH]c2ccccc2nc1-c1ccccc1NCc1ccccn1
IC50 [1]: 1600 nM

O=c1[nH]c2ccccc2nc1-c1ccccc1NS(=O)(=O)c1cccs1
IC50 [1]: > 10000 nM

COc1ccc(-n2ncc3ccc(Nc4ccc(N5CCN(C)CC5)c(OC)c4)nc32)cc1
Ratio IC50 [5]: 0.4
Ratio IC50 [6]: 2

O=C(Nc1ccccc1-c1nc2ccccc2[nH]c1=O)c1ccccn1
IC50 [2]: > 10000 nM
Stability [3]: Unstable
IC50 [1]: 76 nM

CC(C)c1ccc(NC(=O)c2cccs2)c(-c2nc3ccccc3[nH]c2=O)c1
Activity [7]: inactive
Activity [8]: inactive
IC50 [2]: > 10000 nM
Activity [9]: inactive
Activity [10]: inactive
Activity [11]: inactive
inhibition [12]: > 25%
inhibition [13]: > 25%
Activity [14]: inactive
PPB [15]: 99.9%
Activity [16]: inactive
Activity [17]: inactive
Activity [18]: inactive
Activity [19]: inactive
Activity [20]: inactive
Activity [21]: inactive
solubility [22]: 5.8 µM (≈ 2.26 µg/mL)
remaining at 5 h, 5 µM [23]: 10%
Activity [24]: inactive
IC50 [1]: 14 nM
remaining at 5 h, 5 µM [25]: 80.3%
Activity [26]: inactive
Activity [27]: inactive
inhibition [28]: > 25%
PPB [29]: 99.6%
Activity [30]: inactive
Activity [31]: inactive

O=C(Nc1ccccc1-c1nc2cc(F)c(F)cc2[nH]c1=O)c1cccs1
IC50 [2]: > 10000 nM
IC50 [1]: 1600 nM

O=c1[nH]c2ccccc2nc1-c1ccccc1NS(=O)(=O)c1ccccc1
IC50 [1]: 7300 nM

O=C(Nc1ccccc1-c1nc2ccccc2[nH]c1=O)c1ccc(F)cc1
IC50 [2]: > 10000 nM
Stability [3]: Unstable
IC50 [1]: 150 nM

O=C(Nc1ccccc1-c1nc2ccccc2[nH]c1=O)c1ccccc1
IC50 [1]: 170 nM

O=C(Nc1ccccc1-c1nc2ccccc2[nH]c1=O)c1ccc(Cl)cc1
IC50 [1]: 300 nM

O=C(Nc1cc(Cl)ccc1-c1nc2ccccc2[nH]c1=O)c1cccs1
IC50 [2]: > 10000 nM
IC50 [1]: 270 nM

COc1ccc(NC(=O)c2cccs2)c(-c2nc3ccccc3[nH]c2=O)c1
Ratio IC50 [4]: 30
IC50 [2]: 7500 nM
IC50 [1]: 250 nM

O=C(Nc1ccc(OC(F)(F)F)cc1-c1nc2ccccc2[nH]c1=O)c1cccs1
IC50 [2]: > 10000 nM
IC50 [1]: 110 nM
